Assay results as given in US5278174A, “Sigma binding site agents” (priority 1991, dated 1994).
Entries after “also recorded” stand apart in the source; their conditions may differ. Where a name gives a salt, the structure may show the parent alone. Read-outs that look alike come from different tables or passages of the source.

Columns and labels:
[1] = Reversal of Amphetamine-Induced Hyperlocomotion; assay type: in vivo; conditions: Mus musculus, ip, read-out: Induced Locomotion Amphetamine (minimally effective dose, MED)
Description: Opto-varimex locomotor monitors (Columbus Instruments, Columbus, Ohio) were used to assess locomotor activity. The monitors consist of a 37×37 cm square plexiglass open field surrounded by an outer enclosure housing a 15×15 array of infrared photobeams. Placement of the mouse in the open field interrupts one or more beams. Movement is detected by successive interruption of more than one beam (setting: box size - 1). The monitors were placed on separate shelves in a dark test room. An IBM compatible computer (Compaq) monitored beam interruptions and calculated indices of locomotor activity (distance travelled, time ambulating) and stereotype behavior (number of small movements, time in stereotypy or small movements). Because the dose of amphetamine in these studies was too low to produce selective increases in stereotyped behavior, distance travelled was the primary dependent variable.

[2] = Induction of haloperidol-like catalepsy; assay type: in vivo, mouse; conditions: for TD50 at 0.5 h: mouse, in vivo
Description: […]. At the time of the test the front paws of the mouse were placed on a 6 mm diameter rod which was mounted between the side walls of the apparatus, 39 mm above the floor. Gentle pressure was applied from the forefinger to immobilize the animal, with its back in a slightly arched (concave) position. The experimenter then released the mouse and recorded the latency to recover normal posture, as defined by return of at least one forepaw to the floor or placement of one hindlimb on the bar. […] TD50 values for lead compounds and reference compounds were confirmed in side-by-side studies by an experimenter blind to treatment conditions.

[3] = cited from earlier work
D2 [4] = target: T1, D2 (Rattus norvegicus, UniProt P61169); experiment: Dopamine receptor binding, [3H]sulpiride; conditions: 3 nM [3H]sulpiride; rat striata; 60 minutes; read-out: Receptor Potency D2 (Ki, nMol)
T1 construct: Rat striata were homogenized; from tissue; host or cells: rat striatum membranes
T1 sequence (P61169 whole entry): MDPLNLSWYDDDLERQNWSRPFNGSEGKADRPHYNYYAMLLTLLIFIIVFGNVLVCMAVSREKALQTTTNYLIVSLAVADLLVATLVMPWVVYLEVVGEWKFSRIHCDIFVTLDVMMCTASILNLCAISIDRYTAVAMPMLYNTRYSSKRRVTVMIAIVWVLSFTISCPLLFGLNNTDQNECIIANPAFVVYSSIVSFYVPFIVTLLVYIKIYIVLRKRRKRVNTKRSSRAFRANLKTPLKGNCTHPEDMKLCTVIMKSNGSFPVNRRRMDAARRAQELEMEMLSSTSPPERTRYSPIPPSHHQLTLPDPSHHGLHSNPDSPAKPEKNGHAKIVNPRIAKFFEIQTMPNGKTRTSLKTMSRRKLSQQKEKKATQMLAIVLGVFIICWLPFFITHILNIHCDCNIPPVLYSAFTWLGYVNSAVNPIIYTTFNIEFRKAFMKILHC
Description: Dopamine receptor binding was determined using [^3 H] sulpiride. Rat striata were homogenized in 20 volumes of ice-cold 50 mM Tris-HCl (pH 7.5), and the resulting homogenate was centrifuged at 48,000 × g for 10 minutes. The resulting pellet was resuspended in the original volume of 50 mM Tris HCl and centrifuged as previously described. […] The filters were then washed 3 × with 5 mL of 50 mM Tris-HCl containing 100 mM NaCl, and filter bound radioactivity was quantified using liquid scintillation spectrometry.

sigma sites [5] = experiment: Sigma receptor binding assay, [3H]DTG; conditions: 5 nM [3H]DTG; guinea pig whole brain; room temperature, 45 minutes; read-out: Receptor Potency Sigma DTG (IC50, nMol)
Description: (§1) Two selective sigma receptor ligands, [^3 H](+)-3-[3-hydroxyphenyl]-N-(1 propyl)piperidine [(+)-3-PPP] and [^3 H] Ditolylguanidine (DTG), were used to label sigma sites in brain tissue.
(§2) The tissue preparation and assay conditions employed when using either of these ligands were essentially the same. Frozen whole guinea pig brains (obtained from Pel-Freez, Rogers, Ariz.) were homogenized in 10 volumes of ice-cold 0.32M sucrose. The resulting pellet was resuspended in 10 volumes of ice-cold 50 mM Tris-HCl (pH 7.4), incubated at 37 ° C. for 30 minutes, and centrifuged at 22,000 × g for 20 minutes. The final tissue suspension was made in 50 mM Tris-HCl (pH 7.4) to a concentration of 20 mg original wet weight/mL. 800 μL of tissue suspension was added to tubes containing 5 nM [^3 H] DTG or 4 nM [^3 H] […] The final assay volume was 1 mL. The assay tubes were gently vortexed, and the binding reaction was carried out for 45 minutes at room temperature. The reaction was terminated by rapid filtration over Whatman GF/B glass fiber filters, which were then rinsed 3x with 5 mL of 50 mM Tris-HCl. Filter bound radioactivity was quantified using liquid scintillation spectrometry.

[6] = Reversal of Phencyclidine-Induced Hyperlocomotion; assay type: in vivo, mouse; conditions: for minimal effective dose: Mus musculus, read-out: Induced Locomotion PCP (minimally effective dose, MED)
Description: Opto-varimex locomotor monitors (Columbus Instruments, Columbus, Ohio) were used to assess locomotor activity. The monitors consist of a 37×37 cm square plexiglass open field surrounded by an outer enclosure housing a 15×15 array of infrared photobeams. Placement of the mouse in the open field interrupts one or more beams. Movement is detected by successive interruption of more than one beam (setting: box size - 1). The monitors were placed on separate shelves in a dark test room. An IBM compatible computer (Compaq) monitored beam interruptions and calculated indices of locomotor activity (distance travelled, time ambulating) and stereotype behavior (number of small movements, time in stereotypy or small movements).
Male CFl mice (25°-30 g) were obtained from Harlan Sprague Dawley (Indianapolis, (N) and group-housed with free access to food and water for at least four days prior to testing. All tests took place during the light period of a 12:12 hour light-dark cycle. Each daily test consisted of one group of mice receiving a vehicle injection and an injection of amphetamine as the agonist. One group received two vehicle injections, and one or more groups received test compound plus amphetamine. Test compounds or the appropriate vehicles were administered 20 minutes prior to the locomotor test in studies using an intraperitoneal (i.p.) route of administration with mice, 30 minutes prior to test session for studies using an i.p. route of administration to rats, 45 minutes prior to the test session for studies using an oral (p.o.) route of administration with mice and 55 minutes prior to the locomotor test for studies using a p.o. route of administration to rats.
The procedure and data analysis were identical to that reported above for reversal of amphetamine hyperlocomotion with the exception that 3 mg/kg phencyclidine was injected in place of amphetamine 10 minutes prior to the test session.

sigma binding sites = conditions: background statement; cited from earlier work
[7] = clinical trials; cited from earlier work
sigma sites [8] = target: T2, sigma sites (Cavia porcellus, UniProt Q60492); experiment: Sigma receptor binding assay, [3H](+)-3-PPP; conditions: 4 nM [3H](+)-3-PPP; guinea pig whole brain; room temperature, 45 minutes; read-out: Receptor Potency Sigma PPP (IC50, nMol)
T2 construct: Frozen whole guinea pig brains; tissue Pel-Freez, Rogers, Ariz; host or cells: whole guinea pig brain membranes
T2 sequence (Q60492 whole entry): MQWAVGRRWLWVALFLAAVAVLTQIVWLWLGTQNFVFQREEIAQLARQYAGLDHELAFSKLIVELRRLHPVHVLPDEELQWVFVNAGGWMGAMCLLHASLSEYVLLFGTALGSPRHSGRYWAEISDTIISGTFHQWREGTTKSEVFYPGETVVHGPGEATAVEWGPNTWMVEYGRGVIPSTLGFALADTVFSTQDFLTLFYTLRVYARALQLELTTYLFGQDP
Description: as §1, §2

[9] = background statement; SK&F 10047, PCP, amphetamine; cited from earlier work
D2 [10] = conditions: background statement; cited from earlier work
[11] = amphetamine 1.5 mg/kg i.p., mice, NE = no effect to dose shown
[12] = mice, 30 minutes after injection, NE = no effect to dose shown
[13] = mice, 30 minutes after injection, NE = no effect to dose shown, read-out: Catalepsy (TD50)
[14] = phencyclidine 3 mg/kg, mice, NE = no effect to dose shown

Row | Structure (SMILES) | minimal effective dose [1, 11] [mg/kg] | Ki (D2 [4]) [nM] | minimal effective dose [1] [mg/kg] | IC50 (sigma sites [5]) [nM] | IC50 (sigma sites [8]) [nM] | further results
1 | Cc1c(-c2ccccc2)oc2ccc(OCCCCCCN3CCC(O)CC3)cc2c1=O [Example 39, 6-[6-(4-Hydroxypiperidinyl)hexoxy]-3-methyl-2-phenyl-4H-1-benzopyran-4-one hydrochloride] | 25 | – | – | – | – | Catalepsy (TD50) [2, 12]: NE (250)
2 | CN1CCN(C2=Nc3cc(Cl)ccc3Nc3ccccc32)CC1 [Clozapine, reference compound] | 1 | – | – | – | – | Catalepsy (TD50) [2, 12]: NE (4); extrapyramidal side effects ([3]; background statement): relatively free of extrapyramidal side effects; agranulocytosis ([3]; chronic administration): produces agranulocytosis upon chronic administration
3 | O=c1cc(-c2ccccc2)oc2ccc(OCCCCCCN3CCOCC3)cc12 [Example 29, 6-(6-Morpholinylhexoxy)-2-phenyl-4H-1-benzopyran-4-one hydrochloride] | – | 18700 | 10 | – | – | TD50 at 0.5 h [2, 13]: 38 mg/kg
4 | C[C@@H]1CN(CCCn2c3ccccc3c3ccccc32)C[C@H](C)N1 [Rimcazole, reference compound] | – | 22500 | 20 | 1620 | – | minimal effective dose [6]: > 20 mg/kg; potency at sigma sites (sigma binding sites): only moderately potent at sigma sites; effectiveness in treating schizophrenia [7]: some effectiveness in treating schizophrenia; seizures [7]: induce seizures
5 | O=c1cc(-c2ccccc2Cl)oc2ccc(OCCCCCCN3CCC(O)CC3)cc12 [Example 49, 2-(2-Chlorophenyl)-6-(6-(4-hydroxypiperidinyl)hexoxy)-4H-1-benzopyran-4-onehydrochloride] | – | 4050 | 30 | 47 | 29 | –
6 | O=c1cc(-c2ccccc2)oc2ccc(OCCCCCCN3CCC(O)CC3)cc12 [Example 6, 6-6(4-hydroxypiperidinyl)hexoxy]-2-phenyl-4H-1-benzopyran-4-one hydrochloride] | 5 | 3630 | – | 100 | 124 | minimal effective dose [6, 14]: 15 mg/kg; TD50 at 0.5 h [2]: 61 mg/kg
7 | OC(CCCN1CCN(c2ncc(F)cn2)CC1)c1ccc(F)cc1 (stereo not drawn) [BMY14802, reference compound] | 15 | 3000 | – | 237 | – | –
8 | O=c1cc(C2CCCCC2)oc2ccc(OCCCCCCN3CCCCC3)cc12 [Example 34, 2-Cyclohexyl-6-(piperidinylhexoxy)-4H-1-benzopyran-4-one hydrochloride] | 10 | – | – | – | 32 | TD50 at 0.5 h [2]: 30 mg/kg
9 | O=C(CCCN1CCC(O)(c2ccc(Cl)cc2)CC1)c1ccc(F)cc1 [Haloperidol, reference compound] | – | – | 0.075 | – | – | minimal effective dose [6]: 0.15 mg/kg; TD50 at 0.5 h [2, 13]: 0.14 mg/kg; displacement of [3H]DTG and [3H](+)-3-PPP from sigma sites (sigma binding sites): displace [^3 H]DTG and [^3 H](+)-3-PPP from sigma sites; reversal of stimulant and psychotomimetic effects [9]: antagonize the stimulant/psychotomimetic effects of the dopamine agonist, amphetamine, and presumed sigma agonists such as PCP; also recorded: reverses the stimulant and psychotomimetic effects of SK&F 10047 and PCP
10 | CCN1CCC[C@H]1CNC(=O)c1c(OC)ccc(Br)c1OC [Remoxipride] | – | – | – | – | – | D2 blocking potency (D2 [10]): significant D2 blocking potency
11 | O=c1cc(-c2ccccc2)oc2cc(OCCCCCCN3CCC(O)CC3)ccc12 [Example 37, 7-[6-(4-Hydroxypiperidinyl)hexoxy]-2-phenyl-4H-1-benzopyran-4-one] | – | – | 30 | – | 70 | –
12 | c1ccc(C2(N3CCCCC3)CCCCC2)cc1 [PCP, phencyclidine] | – | – | – | – | – | displacement of [3H]DTG and [3H](+)-3-PPP from sigma sites (sigma binding sites): displace [^3 H]DTG and [^3 H](+)-3-PPP from sigma sites
13 | O=c1cc(-c2ccccc2)oc2ccc(OCCCCCCN3CCCCC3)cc12 [Example 28, 2-Phenyl-6-(6-piperidinylhexoxy)-4H-1-benzopyran-4-one hydrochloride] | 20 | 4440 | – | – | 54 | minimal effective dose [6, 14]: 30 mg/kg; TD50 at 0.5 h [2, 13]: < 30 mg/kg
14 | O=c1cc(C2CCCCC2)oc2ccc(OCCCCCCN3CCC(O)CC3)cc12 [Example 26, 2-Cyclohexyl-6-[6-4-hydroxypiperidinyl)hexoxy]-4H-1-benzopyran-4-one hydrochloride] | 20 | 25000 | – | 88 | 46 | TD50 at 0.5 h [2]: 50 mg/kg
15 | CN(C)CCCCCCOc1ccc2oc(-c3ccccc3)cc(=O)c2c1 [Example 4, 6-[6-Dimethylamino)hexoxy1-2-phenyl-4H-1-benzopyran-4-one hydrochloride] | – | 5550 | 30 | 432 | 335 | Induced Locomotion PCP (minimally effective dose, MED) [6, 14]: NE (30); TD50 at 0.5 h [2, 13]: 38 mg/kg
